Test [1] deals with T1, Mitogen-activated protein kinase kinase kinase 2 (Homo sapiens) (UniProt Q9Y2U5).
T1 sequence (whole entry): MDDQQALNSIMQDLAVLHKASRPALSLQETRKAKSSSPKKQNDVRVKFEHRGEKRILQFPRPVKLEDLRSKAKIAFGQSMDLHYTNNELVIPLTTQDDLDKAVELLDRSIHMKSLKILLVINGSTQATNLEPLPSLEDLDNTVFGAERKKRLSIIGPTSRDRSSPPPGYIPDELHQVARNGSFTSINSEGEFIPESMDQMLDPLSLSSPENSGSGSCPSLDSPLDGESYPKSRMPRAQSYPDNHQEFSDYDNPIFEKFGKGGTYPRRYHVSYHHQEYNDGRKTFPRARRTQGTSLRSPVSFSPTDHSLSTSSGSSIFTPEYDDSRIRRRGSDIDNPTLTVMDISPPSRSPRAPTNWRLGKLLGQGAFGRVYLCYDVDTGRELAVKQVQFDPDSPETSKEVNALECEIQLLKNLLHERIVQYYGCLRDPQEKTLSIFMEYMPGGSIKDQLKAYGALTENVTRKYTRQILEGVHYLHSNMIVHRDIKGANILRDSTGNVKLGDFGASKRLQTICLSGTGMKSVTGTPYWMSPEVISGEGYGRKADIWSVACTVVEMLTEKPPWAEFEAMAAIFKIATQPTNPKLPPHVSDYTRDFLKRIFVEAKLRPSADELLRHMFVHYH
The test can be described thus: Selectivity interaction (ProQinase) EUB0000171b MAP3K2.

Test [2] concerns the target Tyrosine-protein kinase Yes (Homo sapiens) (UniProt P07947). The test is described as follows: Selectivity interaction (Ambit KINOMEscan and KiNATiv profiling in Jurkat cells) EUB0000090b YES1. The format is cell-based. The note with it: at 1 µM.
Test [3] concerns the target T2, MAP/microtubule affinity-regulating kinase 4 (Homo sapiens) (UniProt Q96L34).
T2 sequence (whole entry): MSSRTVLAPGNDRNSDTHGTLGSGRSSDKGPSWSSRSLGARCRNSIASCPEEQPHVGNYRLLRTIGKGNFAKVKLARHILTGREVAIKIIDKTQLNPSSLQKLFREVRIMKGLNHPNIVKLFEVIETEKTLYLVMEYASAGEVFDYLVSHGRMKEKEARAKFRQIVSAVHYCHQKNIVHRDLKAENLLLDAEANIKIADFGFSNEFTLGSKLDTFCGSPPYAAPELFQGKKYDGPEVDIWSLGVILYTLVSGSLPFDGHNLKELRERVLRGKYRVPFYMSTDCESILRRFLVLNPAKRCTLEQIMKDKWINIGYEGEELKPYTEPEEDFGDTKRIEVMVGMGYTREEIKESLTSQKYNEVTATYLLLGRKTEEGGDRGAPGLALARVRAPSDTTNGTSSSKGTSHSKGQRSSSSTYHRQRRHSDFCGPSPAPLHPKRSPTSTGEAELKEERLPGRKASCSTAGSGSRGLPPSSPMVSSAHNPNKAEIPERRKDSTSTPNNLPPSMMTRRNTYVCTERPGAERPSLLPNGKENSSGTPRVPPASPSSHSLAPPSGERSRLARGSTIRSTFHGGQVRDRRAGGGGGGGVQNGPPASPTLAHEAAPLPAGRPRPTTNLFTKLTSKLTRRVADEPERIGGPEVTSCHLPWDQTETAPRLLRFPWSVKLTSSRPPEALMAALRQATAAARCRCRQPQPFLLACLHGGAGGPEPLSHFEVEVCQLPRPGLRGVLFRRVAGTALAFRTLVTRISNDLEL
The conditions noted are these: at 10 µM.

Test [4] concerns the target Ribosomal protein S6 kinase alpha-4 (Homo sapiens) (UniProt O75676). The test can be described thus: Selectivity interaction (KinomeScan (DiscoverX)) EUB0000655a RPS6KA4. The note with it: at 10 µM.
Test [5] concerns PI3-kinase p110-alpha/p85-alpha (Homo sapiens), P27986+P42336 [E545K]. The test is described as follows: Selectivity interaction (Adapta Assay) EUB0001632a PIK3CA. Format: protein-complex assay. The note with it: at 10 µM.
The target of test [6] is T3, cGMP-dependent protein kinase 2 (Homo sapiens) (UniProt Q13237).
T3 sequence (whole entry): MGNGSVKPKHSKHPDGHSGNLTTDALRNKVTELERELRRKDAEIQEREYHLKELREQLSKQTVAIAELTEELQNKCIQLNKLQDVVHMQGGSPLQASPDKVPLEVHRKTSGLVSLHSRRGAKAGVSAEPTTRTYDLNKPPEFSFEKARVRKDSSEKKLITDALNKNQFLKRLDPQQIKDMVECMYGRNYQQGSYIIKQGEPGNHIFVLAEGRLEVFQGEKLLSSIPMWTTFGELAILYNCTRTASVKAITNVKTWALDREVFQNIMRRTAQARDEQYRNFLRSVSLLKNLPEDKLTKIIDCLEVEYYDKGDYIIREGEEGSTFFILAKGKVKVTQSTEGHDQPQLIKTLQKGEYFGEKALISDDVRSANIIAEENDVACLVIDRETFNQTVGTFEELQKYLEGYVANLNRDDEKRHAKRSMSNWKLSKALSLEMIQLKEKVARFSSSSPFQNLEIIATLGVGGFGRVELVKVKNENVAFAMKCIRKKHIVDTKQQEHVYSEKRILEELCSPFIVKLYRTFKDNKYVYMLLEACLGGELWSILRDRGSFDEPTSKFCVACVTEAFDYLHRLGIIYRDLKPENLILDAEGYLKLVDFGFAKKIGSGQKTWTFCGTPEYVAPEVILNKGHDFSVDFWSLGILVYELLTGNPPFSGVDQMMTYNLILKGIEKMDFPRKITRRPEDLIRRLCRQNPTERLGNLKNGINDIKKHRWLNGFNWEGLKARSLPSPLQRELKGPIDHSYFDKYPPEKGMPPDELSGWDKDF
The test is described as follows: Selectivity interaction (Kinase panel (Invitrogen)) EUB0000639a PRKG2. The conditions noted are these: at 200 nM.

Test [7] addresses T4, Mitogen-activated protein kinase 13 (Homo sapiens) (UniProt O15264).
T4 sequence (whole entry): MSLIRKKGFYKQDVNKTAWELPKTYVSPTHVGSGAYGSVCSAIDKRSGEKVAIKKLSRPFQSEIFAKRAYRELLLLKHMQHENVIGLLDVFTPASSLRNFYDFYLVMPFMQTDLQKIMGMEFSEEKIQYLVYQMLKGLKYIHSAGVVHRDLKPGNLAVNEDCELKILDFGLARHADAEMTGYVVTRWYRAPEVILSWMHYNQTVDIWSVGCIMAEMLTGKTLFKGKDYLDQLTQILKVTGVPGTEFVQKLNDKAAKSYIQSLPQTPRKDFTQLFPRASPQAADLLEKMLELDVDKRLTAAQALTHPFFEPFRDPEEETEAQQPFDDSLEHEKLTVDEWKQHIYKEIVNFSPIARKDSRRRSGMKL
The test is described as follows: Selectivity interaction (ActivX KiNativ screen (kinase selectivity in THP-1 cell lysates)) EUB0000639a MAPK13. The format is subcellular. The note with it: lysate.

Test [8] concerns the target Tyrosine-protein kinase JAK2 (Homo sapiens, UniProt O60674). The test can be described thus: Selectivity interaction (KinomeScan (DiscoverX)) EUB0001619a JAK2. The note with it: at 1 µM.

Chain of Tyrosine-protein kinase JAK2 (O60674 whole entry): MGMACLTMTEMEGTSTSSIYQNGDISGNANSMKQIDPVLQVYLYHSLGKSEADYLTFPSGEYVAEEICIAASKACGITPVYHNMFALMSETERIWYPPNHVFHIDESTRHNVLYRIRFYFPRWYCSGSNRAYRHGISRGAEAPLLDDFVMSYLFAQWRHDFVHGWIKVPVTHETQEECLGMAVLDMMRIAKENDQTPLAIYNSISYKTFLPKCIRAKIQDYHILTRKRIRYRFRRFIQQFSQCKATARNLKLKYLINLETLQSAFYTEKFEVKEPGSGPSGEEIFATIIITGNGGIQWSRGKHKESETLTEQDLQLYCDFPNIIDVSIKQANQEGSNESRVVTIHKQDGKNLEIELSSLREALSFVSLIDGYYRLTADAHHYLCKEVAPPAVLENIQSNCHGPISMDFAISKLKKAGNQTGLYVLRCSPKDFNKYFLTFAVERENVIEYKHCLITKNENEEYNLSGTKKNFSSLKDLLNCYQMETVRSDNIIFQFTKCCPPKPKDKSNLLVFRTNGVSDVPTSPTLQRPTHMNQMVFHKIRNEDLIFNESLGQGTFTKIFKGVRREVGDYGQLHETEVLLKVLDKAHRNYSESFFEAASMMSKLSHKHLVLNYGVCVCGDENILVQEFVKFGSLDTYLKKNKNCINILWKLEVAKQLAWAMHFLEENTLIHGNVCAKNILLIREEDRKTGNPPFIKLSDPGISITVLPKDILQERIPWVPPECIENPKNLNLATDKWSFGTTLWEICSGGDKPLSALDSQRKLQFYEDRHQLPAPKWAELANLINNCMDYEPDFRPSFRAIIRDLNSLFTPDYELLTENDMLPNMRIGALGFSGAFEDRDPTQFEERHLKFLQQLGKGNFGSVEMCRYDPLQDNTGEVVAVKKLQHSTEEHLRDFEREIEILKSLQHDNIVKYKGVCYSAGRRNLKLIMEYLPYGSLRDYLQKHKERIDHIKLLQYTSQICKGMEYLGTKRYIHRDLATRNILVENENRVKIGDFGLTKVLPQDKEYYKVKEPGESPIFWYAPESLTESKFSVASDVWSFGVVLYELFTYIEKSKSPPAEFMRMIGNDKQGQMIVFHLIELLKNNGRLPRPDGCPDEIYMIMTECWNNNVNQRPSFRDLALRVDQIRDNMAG
Chain of Tyrosine-protein kinase Yes (Homo sapiens) (P07947 2-543 limits assumed): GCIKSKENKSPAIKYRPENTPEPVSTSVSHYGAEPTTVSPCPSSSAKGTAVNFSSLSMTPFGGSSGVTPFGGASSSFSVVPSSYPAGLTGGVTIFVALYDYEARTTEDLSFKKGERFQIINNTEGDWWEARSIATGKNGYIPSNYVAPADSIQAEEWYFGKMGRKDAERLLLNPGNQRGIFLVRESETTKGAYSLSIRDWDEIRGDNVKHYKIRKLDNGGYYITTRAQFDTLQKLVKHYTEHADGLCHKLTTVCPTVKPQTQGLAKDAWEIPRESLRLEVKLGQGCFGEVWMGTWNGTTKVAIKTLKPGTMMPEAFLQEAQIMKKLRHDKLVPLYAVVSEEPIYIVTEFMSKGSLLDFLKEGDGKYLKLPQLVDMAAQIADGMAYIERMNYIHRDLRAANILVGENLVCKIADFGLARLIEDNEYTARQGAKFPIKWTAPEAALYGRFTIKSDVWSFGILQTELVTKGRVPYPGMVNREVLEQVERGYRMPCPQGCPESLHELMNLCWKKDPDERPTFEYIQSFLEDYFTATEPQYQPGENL
Chain of Ribosomal protein S6 kinase alpha-4 (Homo sapiens) (O75676 whole entry, looked up): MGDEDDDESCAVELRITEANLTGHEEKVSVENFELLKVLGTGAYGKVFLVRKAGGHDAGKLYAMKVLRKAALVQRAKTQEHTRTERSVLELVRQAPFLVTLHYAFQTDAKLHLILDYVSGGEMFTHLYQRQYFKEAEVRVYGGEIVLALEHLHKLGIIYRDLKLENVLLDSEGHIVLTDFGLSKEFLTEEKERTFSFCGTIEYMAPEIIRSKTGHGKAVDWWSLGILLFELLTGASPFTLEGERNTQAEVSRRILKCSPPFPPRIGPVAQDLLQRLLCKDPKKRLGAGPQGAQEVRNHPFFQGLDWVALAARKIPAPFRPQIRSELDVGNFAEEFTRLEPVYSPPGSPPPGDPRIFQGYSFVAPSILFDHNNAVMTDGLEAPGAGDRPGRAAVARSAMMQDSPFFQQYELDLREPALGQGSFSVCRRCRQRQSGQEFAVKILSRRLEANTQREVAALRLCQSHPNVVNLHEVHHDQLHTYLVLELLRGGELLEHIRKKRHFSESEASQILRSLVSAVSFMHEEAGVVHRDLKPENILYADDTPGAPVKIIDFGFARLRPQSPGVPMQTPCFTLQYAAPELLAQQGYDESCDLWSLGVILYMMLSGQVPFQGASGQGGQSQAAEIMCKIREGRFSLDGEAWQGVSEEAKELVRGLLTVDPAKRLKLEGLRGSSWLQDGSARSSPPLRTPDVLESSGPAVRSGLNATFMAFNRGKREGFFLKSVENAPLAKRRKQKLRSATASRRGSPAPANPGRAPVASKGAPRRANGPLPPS

For `C=CC(=O)Nc1cccc(C(=O)Nc2ccc(Nc3cc(-c4[nH]c(SC)nc4C)ccn3)cc2)c1`, the figures for the % of control in test [1] (at 1 µM) and in test [1] (at 5 µM) were 99% and 88%, respectively.

Turning to `CN(C)C/C=C/C(=O)Nc1ccc(C(=O)N2CCCC(Nc3ncc(Cl)c(-c4c[nH]c5ccccc45)n3)C2)cc1` (stereo not drawn), the % of control in test [2] worked out at 94%.

On to `CCN(CC)CCCCNc1ncc2cc(-c3cc(OC)cc(OC)c3)c(NC(=O)NC(C)(C)C)nc2n1`, for which the % of control in test [3] is 100%.

`CN(C)CCOc1ccc(-c2nc(-c3ccncc3)c(-c3ccc4c(c3)CC/C4=N\O)[nH]2)cc1`: the % of control in test [4] was determined as 81%.

As for `Cn1cc(-n2cnc3c(NCc4nc5cc(Cl)c(Cl)cc5[nH]4)nc(N4CCOCC4)nc32)cn1`, in test [5], the % of inhibition amounted to 20%.

Regarding `CC[C@@H]1[C@H](F)C(=O)N[C@@H]1COc1nccc2cc(C(N)=O)c(OC)cc12` [ZIMLOVISERTIB], the % of inhibition was 10.5% in test [6]; -4.4% in test [7] (at 0.01 µM); 6% in test [7] (at 0.04 µM); -3.6% in test [7] (at 0.2 µM); 7.4% in test [7] (at 1 µM); 20.3% in test [7] (at 5 µM).

In test [8], `N#Cc1cccc(-c2c[nH]c3ncnc(N4CCOCC4)c23)c1` displayed a % of control of 71%.

Values taken from ChEMBL document CHEMBL5465560, “Selectivity Literature for EUbOPEN Chemogenomic Library” (2024).
